Experimental data: patent US20080021045A1, “7-Amino-5-Halopyrazolopyrimidines with a Fungicidal Action” (BAYER CROPSCIENCE AKTIENGESELLSCHSFT, priority 2003, published 2008)

Test: logP determination by HPLC (EEC Directive 79/831 Annex V. A8)
Format: physicochemical
Conditions: gradient method, acetonitrile/0.1% aqueous phosphoric acid

SMILES | chromatographic logP
CCC(C)c1c(Cl)nc2c(C#N)cnn2c1NC(C)C(C)C (stereo not drawn) [Example 1, 3-cyano-5-chloro-6-(sec-butyl)-7-[(S+)-3-methyl-2-butylamino]pyrazolo[1,5-a]pyrimidine] | 4.59
CCC(C)c1c(Cl)nc2c(C=O)cnn2c1NC(C)C(C)C (stereo not drawn) [Example 2, 3-formyl-5-chloro-6-(sec-butyl)-7-(3-methyl-2-butylamino)pyrazolo[1,5-a]pyrimidine] | 4.17
CCC(C)c1c(Cl)nc2c(C#N)cnn2c1Cl (stereo not drawn) [Example 30, 3-cyano-5,7-dichloro-6-(sec-butyl)pyrazolo[1,5-a]pyrimidine] | 3.27
